Read-outs that look alike come from different tables or passages of the source.
Tests used:
[1] = system: nitric oxide production in LPS-treated BV2 cells; assay: Nitric oxide production (Griess) in LPS-treated BV2 cells; format: cell-based, mouse; conditions: LPS (100 ng/ml) 24 hours, Griess reagent, cell type not stated in Table 1, read-out: IC50 (NO production)
Method: BV2 cells were seeded at a density of 4 x 10^5 cells/well into 96-well plates, and primary microglial cells isolated from the brain of […] ICR mice were seeded at a density of 4 x 10^5 cells/well into 24-well plates.
The culture media were collected and measured for NO production using a Griess reagent solution (1% sulfanilamide and 0.1% N-1-naphthyl ethylenediamine dihydrochloride in 5% phosphoric acid). Briefly, a total of 50 µL of the supernatant was transferred to new 96-well plates and mixed with the same volume of the Griess reagent solution, followed by measuring OD at 570 nm. In addition, the cell viability was assayed in the same manner as in Experimental Example 2.

N2a cells = assay: Neurite outgrowth in N2a cells (Incucyte); format: cell-based, mouse; conditions: 5 µM, FIGS. 14a and 14b
Method: N2a cells were aliquoted at a density of 1x10^4 cells/well into 24-well plates, treated with daidzein, o-desmethylangolensin, S-equal, SPA1413 and SPA1426 at 5 µM, and evaluated for neurite outgrowth by the real-time cell monitoring system InCucyte. The cells were photographed every 2 hours, and the neurites were counted through Incucyte software.

SMILES | IC50 ([1]; Mus musculus, BV-2) | neurite outgrowth (N2a cells) | IC50 [1]
O=c1c(-c2ccc(O)cc2)coc2cc(O)ccc12 [Daidzein, reference compound] | 86.5 µM | significantly increased | 
CNC(=N)NCCC[C@H](N)C(=O)O [L-NMMA, reference compound] |  |  | 15.1 µM
CC(C(=O)c1ccc(O)cc1O)c1ccc(O)cc1 (centres unmarked) [O-DMA, o-desmethylangolensin, reference compound] |  |  | 34.7 µM
Oc1ccc([C@H]2COc3cc(O)ccc3C2)cc1 [S-equol, reference compound] |  |  | 11.7 µM

From US20230330059A1, “3-PHENYL-2H-CHROMENE DERIVATIVE AND PHARMACEUTICAL COMPOSITION FOR PREVENTING OR TREATING ALZHEIMER'S, CONTAINING SAME” (NEUROBIONET, INC., priority 2020, published 2023)
